Laboratory results from a melting point compilation (Tetko et al.; mined from patent text by program, amines drawn as free bases though some values may be those of a salt).

Row | SMILES | melting point [°C]
1 | CC(C)N(C(=S)NC(=O)c1ccccc1)c1ccc2c(c1)OCO2 | 152 to 154
2 | CC1(C)C(C=C2CCCC2)C1C(=O)OC(C#N)c1ccc(F)c(Oc2ccccc2)c1 (stereo not given) | 81
3 | O=C1CCCc2ccc([N+](=O)[O-])cc21 | 104 to 105
4 | CN(C)c1n[nH]c(=O)n1N(C)C | 93
5 | Cc1nc(N2CCCC2)c2ccc(Br)cc2n1 | 120 to 122
6 | CCn1ncc2c(Cl)c3cc(S(C)(=O)=O)ccc3nc21 | 158 to 160
7 | Cc1ccnc(C)c1Cn1nnnc1-c1cccc(Cl)c1Cl | 146 to 148
8 | OCC1OC(n2cnc3c(NC4C=CCC4O)ncnc32)C(O)C1O (stereo not given) | 212 to 214
9 | COC(=O)c1cc(C23CC4CC(CC(C4)C2)C3)c(OC)cc1F | 82 to 88
10 | COc1cc(CO)ccc1OCc1nc(N2CCCCC2)sc1C | 92 to 93
11 | CC(C)(C)OC(=O)NC(C(=O)O)C1=CSCCO1 (stereo not given) | 160
12 | CS(=O)(=O)c1ccc(-c2cnn(CC(=O)c3ccccc3)c(=O)c2-c2ccc(F)cc2)cc1 | 228 to 230
13 | COc1cccc(C(=O)O)c1OC(C)=O | 139 to 140
14 | Cn1c(C(F)(F)F)cc(=O)n(-c2cc([N+](=O)[O-])c(C#N)cc2F)c1=O | 155 to 157
15 | CCc1nc(-c2cccc(C)c2)c(-c2ccnc(NC3CCCC3)c2)s1 | 117 to 118
16 | c1ccc(Oc2ncc(-c3cnc(-c4ccccc4)[nH]3)cn2)cc1 | 254
17 | CC(C)n1nc(-c2sc(C(=O)NCc3ccccn3)nc2-c2cccc(F)c2)ccc1=O | 188 to 190
18 | CCCCCC(O)C1C(=O)NC2(C(O)C3C=CCCC3)C(=O)OC12C (stereo not given) | 144
19 | Fc1ccc(C(=C(c2ccccc2)c2ccc(OCCBr)cc2)C(F)(F)F)cc1 | 115 to 118
20 | COC(=O)[C@H](Cc1ccc(NC(=O)c2c(Cl)cccc2Cl)cc1)NC(=O)c1c(C)cccc1Cl | 244 to 245

Row | SMILES | melting point [°C]
21 | CC(C)(C)NS(=O)(=O)c1ccc(N)cc1 | 127
22 | Clc1nn(-c2cccnc2)cc1NCC1CC1 | 82 to 83
23 | C=CCOC(=O)c1ccccc1Cn1c(=O)n(S(=O)(=O)c2ccc(Cl)cc2)c(=O)c2ccc(Cl)cc21 | 155 to 156
24 | CCOC(=O)c1cn(-c2ccc(C(F)(F)F)cn2)nc1C(C)CC (stereo not given) | 63 to 64
25 | CCN(CC)C(=O)c1ccc(-c2nc(=O)c3ccccc3s2)nc1 | 193
26 | FC(F)(F)c1cccc(-c2ccnc3ncnn23)c1 | 158 to 160
27 | O=C1NC(=O)c2ccc(Br)cc2/C1=C/NCCc1c[nH]c2ccccc12 | 278 to 280
28 | COC(=O)CN(C)C(=O)c1ccc(OC)c2cc(OC)ccc12 | 105 to 107
29 | CC(C)(C)c1cc(CC2CO2)cc(C(C)(C)C)c1O (stereo not given) | 86 to 87
30 | CCc1cn(C2CC(O)C(CNC(=O)Cc3cccs3)O2)c(=O)[nH]c1=O (stereo not given) | 215 to 217
31 | CCCCCCCCCCCCNC(=O)c1cc(-c2ccc(OC)cc2)c(OCCO)c(-c2cccc(Cl)c2)c1 | 114 to 117
32 | C#CC(=O)Oc1ccc(OCc2ccccc2)cc1 | 45 to 47.5
33 | COc1ccccc1NC(=O)Nc1nc(Nc2ccccc2-c2ccccc2)nc(N(CCC(=O)O)Cc2cccc(F)c2)n1 | 115 to 128
34 | CC(C)(C(=O)O)S(=O)c1ccc2c(-c3ccc(Cl)cc3)noc2c1 (stereo not given) | 184 to 185
35 | c1coc(CNc2nccc3ccccc23)c1 | 76 to 77
36 | NC(=O)c1cc(Cl)c(F)c(Cl)c1F | 145 to 147
37 | C=C(c1ccc(-c2cc[nH]n2)cc1)C(O)(Cn1cncn1)c1ccc(F)cc1F (stereo not given) | 182 to 184
38 | CCCCN(Cc1ccc(-c2ccccc2S(=O)(=O)NC(C)(C)C)cc1)C(=O)Cl | 128 to 129
39 | N#CC(N)c1cccc(Cl)c1 (stereo not given) | 31 to 33
40 | c1ccc(-c2ccc(-c3nc4c5ccccc5ccn4n3)cc2)cc1 | 203 to 205
